One data set concerns HCT116 cells. The data set can be described thus: AlamarBlue cell proliferation assay, HCT116. The settings on record: for IC50: read-out: Half maximal inhibitory concentration (IC50) HCT116, 24 hours exposure, AlamarBlue, mean of three replicates ± standard error. The method, then: (§1) Human colorectal carcinoma cell line HCT116 and human breast adenocarcinoma cell line MCF-7 were purchased from ATCC. The cells were cultured in Dulbecco's Modified Eagle's Medium (DMVEM) complemented with 10% fetal bovine serum (FBS) at 37° C. (5% CO2 and 95% humidity). 100 µg/mL streptomycin and 100 U/mL penicillin were used in the media to prevent microbial growth. Assays were performed on cells from passages 3-8.
(§2) AlamarBlue® was used to determine the drug-dose response according to the manufacturer's instruction (Thermo Fisher, Waltham, Massachusetts, United States). The samples of complexes were diluted to a working concentration in DMVEM before their exposure to the cancer cells. The cancer cells were cultivated in 96-well plates for 24 hours. The cell culture medium was then removed and the diluted test compounds were added to the wells. The well plates were incubated for 24 hours at 37° C. with 5% CO2. Subsequently, the cell culture medium was removed for the addition of 10% AlamarBlue® (diluted in DMEM) to each well. The plates were incubated for 3 hours at 37° C. protected from light. The cytotoxicity/proliferation was measured using fluorescence spectrophotometry with fluorescence being read at an excitation wavelength of 560 nm and an emission wavelength of 590 nm. To calculate the percentage difference in reduction between treated and control cells in cytotoxicity/proliferation assays, the following formula was used: […]
(§3) The prepared […] complexes 1-4 were evaluated for their inhibition of cell proliferation towards two human cancer cell lines: HCT116 and MCF-7. The cells were treated with a range of concentrations (0.3, 1, 3, 10, 100 μM) of the complexes for 24 hours. The cells viability were then assessed and half maximal inhibitory concentration (IC50) values were calculated thereafter. […] These values are about 6- to 20-fold lower than cisplatin IC50 values.
(Resazurin is reduced to fluorescent resorufin, in cell work by metabolically active cells.)

Data set [1] relates to MCF-7 cells. The data set can be described thus: AlamarBlue cell proliferation assay, MCF-7. The class given is cell-based, human. The settings on record: 24 hours exposure, mean of three replicates ± standard error. The method, then: as §1, §2, §3
For a further data set, the system named is MCF-7 cancer cell line. The settings on record: value from cited reference; read-out: IC50 MCF-7 (literature complexes); cited from earlier work.
Data set [2] relates to prostate (PC-3) cancer cells. Conditions: PC-3 cells; cited from earlier work.
Data set [3] relates to glioblastoma (U87-MG) cancer cells. The settings on record: cited from earlier work.
In a further data set the test system is HCT116 cancer cell line. The settings on record: value from cited reference; read-out: IC50 HCT116 (literature complexes); cited from earlier work.
In data set [4] the test system is MCF-7 cells. Kind of data set: Mitochondrial membrane potential (ΔΨm), JC-1 dye. It is filed as cell-based, human. Conditions: MCF-7, 24 hours. The method, then: MCF-7 cells (1×10^4 cells per well in a 96-well plate) were treated with different concentrations of complexes, and untreated cells were used as a negative control. After treatment for 24 hours, 5,5′,6,6′-tetrachloro-1,1′,3,3′-tetraethylbenzimidazolocarbocyanine iodide (JC-1) dye (Thermo Fisher, Waltham, Massachusetts, United States) was added to each well containing the cells. The staining was performed following the protocol provided by the manufacturer. A fluorescence spectrophotometer was used to measure the fluorescence of JC-1-stained cells, and fluorescence signals in the red and green channels were recorded separately.
To examine the effect of complexes 1-4 on mitochondrial membrane potential (ΔΨm), JC-1 fluorescence dye was used to stain intact and depolarized mitochondria in MCF-7 cells following exposure to the complexes.

Data set [5] in a line: Solution chemistry / stability by UV-Vis spectrophotometry. The class given is physicochemical. The settings on record: room temperature; complexes 2, 3 in DMSO:H2O (3:7); complex 4 in 100% DMSO and DMSO:H2O (1:1). The method, then:
The solution chemistry of complexes 2, 3, and 4 ([…], 10 mL) was investigated using ultraviolet-visible (UV-Vis) spectrophotometry at room temperature. The studied complexes are partially soluble in aqueous solution. Complexes 2 and 3 were dissolved in the mixture of DMSO:H2O (3:7), where H2O is a co-solvent of DMSO. A UV-Vis experiment was performed initially at time=0 (2 and 3) and at time=24 hours (2′ and 3′) (FIG. 26A). Furthermore, complex 4 was dissolved in 100% DMSO and a mixture of (DMSO:H2O) (1:1), where H2O is co-solvent of DMSO. Further, a UV-Vis experiment was performed initially at time=0 (4) and at time=24 hours.

[6] abbreviates: read-out: Half maximal inhibitory concentration (IC50) MCF-7.

Where two headings read alike, the source gives them in different places.

`N.N.[Cl][Pt][Cl]` [Cisplatin, reference compound]: the IC50 worked out at 20.8 ± 0.93 µM in the data set on HCT116 cells and 21.1 ± 1.41 µM in the data set on MCF-7 cells [1] (setting [6]).

With `[C](#Cc1ccncc1)[Au][PH](CCCC[PH]([Au][C]#Cc1ccncc1)(c1ccccc1)c1ccccc1)(c1ccccc1)c1ccccc1` [[Au2(dppb)(4-ep)2]], in the data set with MCF-7 cancer cell line, the IC50 was 2.8 ± 0.6 µM.

In the case of `COc1cccc(OC)c1[PH]([Au+][PH](c1c(OC)cccc1OC)(c1c(OC)cccc1OC)c1c(OC)cccc1OC)(c1c(OC)cccc1OC)c1c(OC)cccc1OC.F[P-](F)(F)(F)(F)F` [[Au{P(2,6-dimethoxyphenyl)3}2]PF6], the “fold higher cytotoxicity than cisplatin” value in data set [2] and in data set [3] was 30 fold throughout.

Regarding “Chlorotriphenylposphine-1,3-bis(diphenylphosphino)propanegold(I) [[Au(dppp)(PPh3)Cl]]”, the IC50 in the data set with HCT116 cancer cell line was 4.17 µM.

With [Au2(Bdbp)(Dpma)]P2F12 [Complex 4], the IC50 in the data set with HCT116 cells worked out at 0.93 µM; with MCF-7 cells [1] (listed as 4, read-out: Half maximal inhibitory concentration (IC50) MCF-7), 1.2 ± 0.32 µM; in the data set with MCF-7 cells [1] (listed as complex 4, read-out: Half maximal inhibitory concentration (IC50) MCF-7), 1.8 µM. Further, the “effect on mitochondrial membrane potential (ΔΨm) at 2.5 μM” value with MCF-7 cells [4] is listed as “most reduction of ΔΨm”. Moreover, the “stability in solution (UV-Vis, time 0 vs 24 hours)” value in data set [5] was “high stability”.

On to [Au2(Bdbp)(Dppb)]P2F12 [Complex 3], for which the IC50 was determined as 1.8 ± 0.22 µM with HCT116 cells and 1.3 ± 0.54 µM with MCF-7 cells [1] (setting [6]). Besides, the “increase of cytotoxic effect on lengthening linker from 2 carbons (complex 1) to 4 carbons” value with HCT116 cells (relative to complex 1, FIG. 24A/24E vs 24C/24G (HCT116 and MCF-7)) is on record as “about 4.5 fold”. Also, in data set [5], the “stability in solution (UV-Vis, time 0 vs 24 hours)” value was “less stability”.

For the compound [Au2(Bdbp)(Dppe)]P2F12 [Complex 1], the IC50 with HCT116 cells was 8.2 µM; in the data set on MCF-7 cells [1] (setting [6]), 7.9 µM. For the same compound, the “effect on mitochondrial membrane potential (ΔΨm) at 2.5 μM” value in the data set on MCF-7 cells [4] is recorded as “least reduction of ΔΨm”.

For [Au2(Bdbp)(Dppp)]P2F12 [Complex 2], the results for the IC50 in the data set on HCT116 cells and with MCF-7 cells [1] (setting [6]) were 3.6 ± 0.37 µM and 2.3 ± 0.24 µM, respectively.

Values taken from US20250041427A1, “DINUCLEAR PHOSPHANE GOLD(I) COMPLEXES FOR TREATING CANCER” (priority 2023, published 2025).
